Measured values taken from patent publication US20230118911A1, “PROTEOLYSIS TARGETING CHIMERA (PROTAC) FOR DEGRADATION OF AURORA A-KINASE” (Julius-Maximilians-Universitaet Wuerzburg, priority 2020, published 2023).

Assays:
Aurora-A [1] = target: T1, Aurora-A (Homo sapiens, UniProt O14965); experiment: Immunoblot of endogenous Aurora-A in MV4-11 cells after a single dose of degrader; type: cell-based; set-up: resulting in degradation of endogenous Aurora-A; endogenous in cells; host or cells: MV4-11
T1 sequence (O14965 1-403): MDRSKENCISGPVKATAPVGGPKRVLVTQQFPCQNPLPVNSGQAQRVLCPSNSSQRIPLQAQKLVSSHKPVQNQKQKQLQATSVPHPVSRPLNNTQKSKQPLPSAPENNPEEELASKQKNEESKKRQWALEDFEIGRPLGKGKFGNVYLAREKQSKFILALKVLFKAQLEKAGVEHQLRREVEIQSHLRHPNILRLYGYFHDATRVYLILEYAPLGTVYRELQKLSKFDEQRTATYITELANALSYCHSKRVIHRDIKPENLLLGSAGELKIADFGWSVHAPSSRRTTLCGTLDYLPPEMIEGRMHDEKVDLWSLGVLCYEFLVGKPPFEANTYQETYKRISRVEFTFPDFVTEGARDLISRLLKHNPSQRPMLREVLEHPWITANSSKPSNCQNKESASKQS
Description: (§1) Then, the cells were lysed in RIPA lysis buffer (50 mM HEPES pH 7.9, 140 mM NaCl, 1 mM EDTA, 1% Triton X-100, 0.1% SDS, 0.1% sodium deoxycholate) containing protease and phosphatase inhibitors (Sigma) and incubated for 20 minutes at 4° C. in head-over-tail. Lysates were cleared by centrifugation. Protein quantification was done using BCA assay and equal amounts of proteins were separated by BisTris-PAGE and transferred to PVDF membranes (Millipore). The membranes were blocked with 5% (w/v) nonfat dry milk dissolved in TBS-T (20 mM Tris/HCl, pH 7.5, 150 mM NaCl, and 0.1% (v/v) Tween 20) at RT for 1 hour and then incubated with the primary antibody overnight at 4° C. Visualization was done with HRP-labeled secondary antibodies and detected using Chemiluminescent HRP substrate (Millipore) in LAS3000 or LAS4000 Mini (Fuji). The signal was quantified using ImageJ (version 1.52q) or Image Studio Lite (LI-COR Biosciences, Version 5.2.5). […] Error bars represent standard deviations of four biological replicate experiments.

Aurora-A [2] = target: T1, Aurora-A; experiment: Immunoblot of endogenous Aurora-A, MV4-11 cells treated with various concentrations for 6 hours; type: cell-based; set-up: resulting in degradation of endogenous Aurora-A; endogenous in cells; host or cells: MV4-11
Description: as §1
Afterwards, cells were lysed in RIPA lysis buffer (50 mM HEPES pH 7.9, 140 mM NaCl, 1 mM EDTA, 1% Triton X-100, 0.1% SDS, 0.1% sodium deoxycholate) containing protease and phosphatase inhibitors (Sigma) and incubated for 20 minutes at 4° C. in head-over-tail. Further processing of resulting cell lysates and immunoblotting was performed as described above.

MV4-11 cells [3] = experiment: Annexin-PI FACS apoptosis assay in MV4-11 cells; type: cell-based, human; conditions: 0.5 μM, 72 hours
Description: (§2) For Annexin-PI FACS, the medium in which the cells were cultured was combined with the cells.
(§3) The cells were washed once with ice-cold PBS, resuspended in 100 μl Annexin V Binding buffer (10 mM HEPES pH 7.4, 140 mM NaCl, 2.5 mM CaCl2)) with 2 μl of Annexin V/Pacific Blue dye and incubated for 15 minutes in the dark at room temperature. 400 μl Annexin V Binding buffer with propidium iodide (18.5 μM) was added and the samples were stored cold and in the dark until analysis.

MV4-11 cells [4] = experiment: alamarBlue cell viability assay; type: cell-based; conditions: Homo sapiens, 1 μM (refreshed every 24 h), 72 hours, read-out: viable cells compared to control cells
Description: The alamarBlue assay (Thermo Fisher Scientific) was performed according to manufacturer's instruction using HS Cell Viability Reagent. The fluorescence was measured in Tecan Infinite-200 using a fluorescence excitation wavelength of 550 and an emission of 600 nm.

IMR5 cells = experiment: Annexin-PI FACS apoptosis assay in IMR5 cells with or without Aurora-A T217D expression; conditions: 0.5 μM, 72 hours, doxycycline-induced Aurora-A T217D vs EtOH control
Description: as §2, §3
Aurora-AT^217D is a functional mutant of Aurora-A. IMR5 cells express Aurora-A^T217D upon incubation with doxycycline (Dox) but not upon incubation with ethanol (control-EtOH).

In the case of `COc1cc(Nc2ncc3c(n2)-c2ccc(Cl)cc2C(c2c(F)cccc2OC)=NC3)ccc1C(=O)NCCOCCOCCC(=O)N[C@H](C(=O)N1C[C@H](O)C[C@H]1C(=O)NCc1ccc(-c2scnc2C)cc1)C(C)(C)C` [JB160, VHL-PEG2-alisertib], the Aurora-A steady-state levels (Aurora-A [1]; single dose, VHL-ligand-based degraders) is reported as “neither of the VHL-ligand-based degraders JB160 and JB161 reduced Aurora-A steady-state levels”.
With `COc1cc(Nc2ncc3c(n2)-c2ccc(Cl)cc2C(c2c(F)cccc2OC)=NC3)ccc1C(=O)NCCOCCOCCNC(=O)COc1cccc2c1C(=O)N(C1CCC(=O)NC1=O)C2=O` (stereo not drawn) [JB170, thalidomide-PEG2-alisertib] the Aurora-A levels (Aurora-A [2]; 10 nM) was “significantly decreased”, the Aurora-A degradation (Aurora-A [2]; 100 nM and 1 μM) was “almost complete degradation” and the “Hook effect on Aurora-A depleting activity” value (Aurora-A [2]; high concentrations) was “reversal of the Aurora-A depleting activity was observed”. For the same compound, the Annexin-positive cells (MV4-11 cells [3]) was 56%, the viability at 1 µM (MV4-11 cells [4]) was 32% and the “effect of Aurora-A T217D expression on induced apoptosis” value (IMR5 cells) was “completely reverted the induction of apoptosis”.
`COc1cc(Nc2ncc3c(n2)-c2ccc(Cl)cc2C(c2c(F)cccc2OC)=NC3)ccc1C(=O)O` [alisertib, reference compound] was tested, and the Aurora-A levels (Aurora-A [2]; 1 μM) was “did not decrease Aurora-A levels, but induced a significant increase”.
With thalidomide-PEG3-alisertib [JB158] the “reduction of Aurora-A protein level” value (Aurora-A [1]; single dose (0.1 μM, 1 μM), compared to control cells) was 62%.
